Source: patent US20250282779A1, “SUBSTITUTED 5,6,7,8-TETRAHYDROPYRIDO[2,3-D]PYRIMIDINE-2,4-DIONES FOR TREATING CARDIAC DISEASES” (MYOKARDIA, INC., priority 2018, published 2025)

Legend:
rabbit skeletal myosin = test: Myosin inhibition assay (rbskMF pCa 6 IC50); assay type: biochemical; conditions: cardiac vs rabbit skeletal myofibrils
Excerpt: Myosin inhibition assay (rbskMF pCa 6 IC50 (μM))
Inhibition of the enzymatic activity of rabbit skeletal myosin associated with the release of ADP (adenosine diphosphate) at the calcium concentrate that achieves a 50% activation of the rabbit skeletal myofibril system. The procedure was the same as that of bovin cardiac myosin inhibition assay (bcMF pCa 6 IC50 (μM)) by replacing bovine cardiac myofibril with rabbit skeletal myofibril.

[1] = system: adult rat ventricular myocytes; test: Cardiomyocyte contractility assay; assay type: cell-based; conditions: 0.3 μM compound; for inhibition at 0.3 µM: Rattus norvegicus, Ventricular myocyte, fractional shortening, myocytes paced at 1 Hz, read-out: % inhibition of FS at 0.3 μM
Description: Cardiomyocyte Contractility Assay
Contractility of adult rat ventricular myocytes is determined by edge detection with an IonOptix contractility system. Aliquots of myocytes in Tyrode buffer (137 mM NaCl, 3.7 mM KCL, 0.5 mM MgCl2, 1.5 mM CaCl2, 4 mM HEPES, 11 mM glucose) are placed in a perfusion chamber (Series 20 RC-27NE; Warner Instruments), allowed to adhere to the coverslip, and then perfused with 37° C. Tyrode buffer. Myocytes are filed stimulated at 1 Hz and 10V. Only myocytes with clear striations, quiescent prior to pacing, with a cell length of 120-180 microns, a basal fractional shortening equal to 3-8% of the cell length, and a contraction velocity greater than 100 microns per second are used for contractility experiments. To determine the response to compounds (at 0.3 μM concentration), myocytes are first perfused for 60 seconds with Tyrodes buffer followed by 5 min of compound and a 140 second washout with Tyrodes buffer. Data is continuously recorded using IonOptix software. Contractility data is analyzed using Ionwizard software (IonOptix). For each cell, 10-20 contractility transients were averaged and compared under basal (no compound) and compound-treated conditions. Compound activity is measured by effects on fractional shortening (FS), where fractional shortening is the ratio of the peak length of the cell at contraction divided by the basal cell length normalized to 100% for an untreated cell. The % inhibition measurement is calculated by subtracting the FS value from 100%.

bovine cardiac myosin [2] = target: T1, bovine cardiac myosin (Bos taurus (Bovine), UniProt Q9BE39); test: Myosin inhibition assay (bcMF pCa 6 IC50); assay type: biochemical; conditions: bovine cardiac myofibrils, calcium giving 50% activation
Description: Myosin inhibition assay (bcMF pCa 6IC50 (μM))
Small molecule agents were assessed for their ability to inhibit the enzymatic activity of bovine cardiac myosin using a biochemical assay that couples the release of ADP (adenosine diphosphate) from cardiac myosin to an enzymatic coupling system consisting of pyruvate kinase and lactate dehydrogenase (PK/LDH) and monitoring the absorbance decrease of NADH (at 340 nm) as a function of time. PK converts ADP to ATP (adenosine triphosphate) by converting PEP (phosphoenolpyruvate) to pyruvate. Pyruvate is then converted to lactate by LDH by converting NADH (nicotinamide adenine dinucleotide) to NAD (oxidized nicotinamide adenine dinucleotide). The source of cardiac myosin was from bovine heart in the form of skinned myofibrils. Prior to testing small molecule agents, the bovine myofibrils were assessed for their calcium responsiveness and the calcium concentration that achieves a 50% activation of the myofibril system was chosen as the final condition for assessing the inhibitory activity of the small molecule agents. All enzymatic activity was measured in a buffered solution containing 12 mM PIPES (piperazine-N,N′-bis(2-ethanesulfonic acid), 2 mM magnesium chloride at pH 6.8 (PM12 buffer). Final assay conditions were 1 mg/mL of bovine cardiac myofibrils, 0.4 mM PK/LDH, 50 uM ATP, 0.1 mg/mL BSA (bovine serum albumin), 10 ppm antifoam, 2 mM BME, 0.5 mM NADH, and 1.5 mM PEP at the desired free calcium concentration required to achieve 50% activation of the myofibrils.
A dilution series of compound was created in DMSO such that the final desired concentration of compound would be achieved in a volume of 30 μL with a fixed DMSO concentration of 3.3% (v/v). Typically 1 μL of the dilution series were added to 384 well plate to achieve a 10 point dose response. Following the addition of 14 μL of a solution containing bovine cardiac myofibrils, PK/LDH and a solution of calcium (that achieved 50% activation), the enzymatic reaction was started with the addition of 15 μL of a solution containing ATP, PEP and NADH. The reaction progress was followed in a PerkinElmer Envision plate reader at ambient temperature using clear bottom plates. The plate reader was configured to read absorbance at 340 nm in kinetics mode for 15 minutes. Data were recorded as the slope of the absorbance response to time. The slopes of the absorbance response as a function of time were normalized to slopes on the plate containing DMSO. This normalized rate was then plotted as a function of small molecule concentration and the data was fitted to a four-parameter fit using EXCEL XLfit. The IC50 is the concentration at which fifty percent of the total response is inhibited.

bovine cardiac myosin [3] = target: T1, bovine cardiac myosin; test: Myosin inhibition assay (bcMF serum pCa 6 IC50), 10% human serum; assay type: biochemical; conditions: in the presence of 10% human serum
Excerpt: Myosin Inhibition Assay (bcMF Serum pCa 6 IC50 (μM))
Inhibition of the enzymatic activity of bovine cardiac myosin associated with the release of ADP (adenosine diphosphate) at the calcium concentrate that achieves a 50% activation of the bovine cardiac myofibril system in the presence of 10% human serum. The procedure was the same as that bovin cardiac myosin inhibition assay (bcMF pCa 6 IC50 (μM)) but with the addition of 10% human serum.

T1 sequence (Q9BE39 whole entry): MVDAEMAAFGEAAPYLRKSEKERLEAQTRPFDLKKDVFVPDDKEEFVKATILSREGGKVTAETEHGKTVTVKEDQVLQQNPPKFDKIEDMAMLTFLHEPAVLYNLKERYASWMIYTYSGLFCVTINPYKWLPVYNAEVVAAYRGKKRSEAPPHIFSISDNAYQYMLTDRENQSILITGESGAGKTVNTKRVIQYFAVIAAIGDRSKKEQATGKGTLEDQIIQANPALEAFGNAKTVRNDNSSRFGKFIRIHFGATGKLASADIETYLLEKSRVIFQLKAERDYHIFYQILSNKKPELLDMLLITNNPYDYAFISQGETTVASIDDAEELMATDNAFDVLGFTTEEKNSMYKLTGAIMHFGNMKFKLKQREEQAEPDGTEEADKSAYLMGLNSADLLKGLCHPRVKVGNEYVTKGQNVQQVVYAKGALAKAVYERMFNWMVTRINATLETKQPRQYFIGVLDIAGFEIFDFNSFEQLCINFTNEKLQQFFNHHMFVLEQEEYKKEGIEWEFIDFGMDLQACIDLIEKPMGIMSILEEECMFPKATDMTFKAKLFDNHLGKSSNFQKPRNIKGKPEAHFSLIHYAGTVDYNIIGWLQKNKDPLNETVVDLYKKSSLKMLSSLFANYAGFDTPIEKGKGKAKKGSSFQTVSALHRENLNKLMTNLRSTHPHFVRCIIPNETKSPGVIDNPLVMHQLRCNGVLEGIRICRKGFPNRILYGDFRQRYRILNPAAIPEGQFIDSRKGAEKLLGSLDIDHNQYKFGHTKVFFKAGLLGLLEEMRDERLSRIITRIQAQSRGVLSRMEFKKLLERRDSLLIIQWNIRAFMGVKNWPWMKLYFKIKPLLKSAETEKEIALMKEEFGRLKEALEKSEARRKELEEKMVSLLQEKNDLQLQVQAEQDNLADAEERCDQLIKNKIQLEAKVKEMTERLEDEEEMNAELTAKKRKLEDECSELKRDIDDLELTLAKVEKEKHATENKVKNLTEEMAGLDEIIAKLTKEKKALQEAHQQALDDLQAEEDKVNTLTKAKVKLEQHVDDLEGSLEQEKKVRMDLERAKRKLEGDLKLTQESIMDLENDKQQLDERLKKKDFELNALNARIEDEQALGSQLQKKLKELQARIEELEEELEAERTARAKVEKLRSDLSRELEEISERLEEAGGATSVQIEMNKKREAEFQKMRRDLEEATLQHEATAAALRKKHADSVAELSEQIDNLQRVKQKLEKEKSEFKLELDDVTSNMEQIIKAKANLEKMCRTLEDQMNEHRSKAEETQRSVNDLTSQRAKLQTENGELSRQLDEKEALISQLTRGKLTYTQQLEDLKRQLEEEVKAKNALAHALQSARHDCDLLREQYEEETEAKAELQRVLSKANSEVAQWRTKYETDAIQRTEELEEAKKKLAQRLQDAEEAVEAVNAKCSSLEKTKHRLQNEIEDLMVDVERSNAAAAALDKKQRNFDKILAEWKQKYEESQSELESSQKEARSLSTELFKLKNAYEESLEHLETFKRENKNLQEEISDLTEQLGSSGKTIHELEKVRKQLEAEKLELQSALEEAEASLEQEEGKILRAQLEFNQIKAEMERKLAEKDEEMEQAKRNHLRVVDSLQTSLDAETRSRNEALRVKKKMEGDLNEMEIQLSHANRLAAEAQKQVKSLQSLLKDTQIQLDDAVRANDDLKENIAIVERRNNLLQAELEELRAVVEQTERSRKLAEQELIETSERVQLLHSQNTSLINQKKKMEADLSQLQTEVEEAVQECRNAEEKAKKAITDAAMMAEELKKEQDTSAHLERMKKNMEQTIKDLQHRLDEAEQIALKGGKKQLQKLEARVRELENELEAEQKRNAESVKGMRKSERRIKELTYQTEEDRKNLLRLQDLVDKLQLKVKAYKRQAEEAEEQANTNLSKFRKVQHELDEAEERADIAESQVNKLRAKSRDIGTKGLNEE
T1 sequence (P85100 whole entry partner): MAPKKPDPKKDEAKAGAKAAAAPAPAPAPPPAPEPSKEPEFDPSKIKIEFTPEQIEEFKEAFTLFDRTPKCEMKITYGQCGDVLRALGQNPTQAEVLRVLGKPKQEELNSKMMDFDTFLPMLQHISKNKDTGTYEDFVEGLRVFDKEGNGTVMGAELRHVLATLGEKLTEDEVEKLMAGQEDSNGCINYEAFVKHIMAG
T1 sequence (Q3SZE5 whole entry partner): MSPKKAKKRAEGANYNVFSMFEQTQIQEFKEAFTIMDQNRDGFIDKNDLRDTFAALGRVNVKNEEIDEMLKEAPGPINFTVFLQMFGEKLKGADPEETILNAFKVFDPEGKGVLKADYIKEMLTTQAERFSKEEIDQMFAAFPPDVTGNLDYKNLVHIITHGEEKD

Row | SMILES | Cardiac selectivity ratio vs rbskMF pCa 6 IC50 (rabbit skeletal myosin) | inhibition at 0.3 µM [1] [%] | IC50 (bovine cardiac myosin [2]; read-out: bcMF pCa 6 IC50) [nM] | IC50 (bovine cardiac myosin [2]; read-out: bcMF pCa_6 IC50 MEAN) [nM] | IC50 (bovine cardiac myosin [3]) [nM] | observation in cardiomyocyte contractility assay [1]
1 | Cc1ccc(F)c([C@@H]2Nc3[nH]c(=O)n(C4CCOCC4)c(=O)c3C[C@@H]2F)c1 [Compound 3, (6S,7S)-6-fluoro-7-(2-fluoro-5-methylphenyl)-3-(tetrahydro-2H-pyran-4-yl)-5,6,7,8-tetrahydropyrido[2,3-d]pyrimidine-2, 4 (1H, 3H)-dione] | 4.51 | > 66 | 1110 | 1110 | 1560 | –
2 | O=c1[nH]c2c(c(=O)n1C1CCOCC1)CC(F)(F)[C@H](c1cccc(F)c1)N2 [Compound C-1, (S)-6,6-difluoro-7-(3-fluorophenyl)-3-(tetrahydro-2H-pyran-4-yl)-5,6,7,8-tetrahydropyrido[2,3-d]pyrimidine-2,4(1H,3H)-dione, reference compound] | 5.48 | 33 to 66 | 1570 | – | 3490 | Early after depolarization or EAD
